For the first assay, the target named is GCN2 kinase (Homo sapiens (Human), UniProt Q9P2K8). Nature of the assay: GCN2 Enzyme Inhibition Assay (Transcreener ADP2 fluorescence polarization). The assay is classed as biochemical. The following applies: 280 μM ATP, 200 μM (RS)7 peptide, 4 nM GCN2, 25° C. In a few lines:
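At 25 °C, GCN2 kinase (typical final concentration 4 nM) and (RS)7 peptide in Tris-HCl pH 7.5 buffer with MgCl2, NaCl and DTT were preincubated with compound for 10 min, then ATP was added for a 1 h reaction. ADP was read by FP with antibody/Alexa633 tracer. Non-linear tight-binding analysis gave IC50 and apparent Ki.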
(Fluorescence polarisation rises when a labelled molecule tumbles more slowly, as on binding a larger partner.)
GCN2 kinase, sequence (Q9P2K8 whole entry): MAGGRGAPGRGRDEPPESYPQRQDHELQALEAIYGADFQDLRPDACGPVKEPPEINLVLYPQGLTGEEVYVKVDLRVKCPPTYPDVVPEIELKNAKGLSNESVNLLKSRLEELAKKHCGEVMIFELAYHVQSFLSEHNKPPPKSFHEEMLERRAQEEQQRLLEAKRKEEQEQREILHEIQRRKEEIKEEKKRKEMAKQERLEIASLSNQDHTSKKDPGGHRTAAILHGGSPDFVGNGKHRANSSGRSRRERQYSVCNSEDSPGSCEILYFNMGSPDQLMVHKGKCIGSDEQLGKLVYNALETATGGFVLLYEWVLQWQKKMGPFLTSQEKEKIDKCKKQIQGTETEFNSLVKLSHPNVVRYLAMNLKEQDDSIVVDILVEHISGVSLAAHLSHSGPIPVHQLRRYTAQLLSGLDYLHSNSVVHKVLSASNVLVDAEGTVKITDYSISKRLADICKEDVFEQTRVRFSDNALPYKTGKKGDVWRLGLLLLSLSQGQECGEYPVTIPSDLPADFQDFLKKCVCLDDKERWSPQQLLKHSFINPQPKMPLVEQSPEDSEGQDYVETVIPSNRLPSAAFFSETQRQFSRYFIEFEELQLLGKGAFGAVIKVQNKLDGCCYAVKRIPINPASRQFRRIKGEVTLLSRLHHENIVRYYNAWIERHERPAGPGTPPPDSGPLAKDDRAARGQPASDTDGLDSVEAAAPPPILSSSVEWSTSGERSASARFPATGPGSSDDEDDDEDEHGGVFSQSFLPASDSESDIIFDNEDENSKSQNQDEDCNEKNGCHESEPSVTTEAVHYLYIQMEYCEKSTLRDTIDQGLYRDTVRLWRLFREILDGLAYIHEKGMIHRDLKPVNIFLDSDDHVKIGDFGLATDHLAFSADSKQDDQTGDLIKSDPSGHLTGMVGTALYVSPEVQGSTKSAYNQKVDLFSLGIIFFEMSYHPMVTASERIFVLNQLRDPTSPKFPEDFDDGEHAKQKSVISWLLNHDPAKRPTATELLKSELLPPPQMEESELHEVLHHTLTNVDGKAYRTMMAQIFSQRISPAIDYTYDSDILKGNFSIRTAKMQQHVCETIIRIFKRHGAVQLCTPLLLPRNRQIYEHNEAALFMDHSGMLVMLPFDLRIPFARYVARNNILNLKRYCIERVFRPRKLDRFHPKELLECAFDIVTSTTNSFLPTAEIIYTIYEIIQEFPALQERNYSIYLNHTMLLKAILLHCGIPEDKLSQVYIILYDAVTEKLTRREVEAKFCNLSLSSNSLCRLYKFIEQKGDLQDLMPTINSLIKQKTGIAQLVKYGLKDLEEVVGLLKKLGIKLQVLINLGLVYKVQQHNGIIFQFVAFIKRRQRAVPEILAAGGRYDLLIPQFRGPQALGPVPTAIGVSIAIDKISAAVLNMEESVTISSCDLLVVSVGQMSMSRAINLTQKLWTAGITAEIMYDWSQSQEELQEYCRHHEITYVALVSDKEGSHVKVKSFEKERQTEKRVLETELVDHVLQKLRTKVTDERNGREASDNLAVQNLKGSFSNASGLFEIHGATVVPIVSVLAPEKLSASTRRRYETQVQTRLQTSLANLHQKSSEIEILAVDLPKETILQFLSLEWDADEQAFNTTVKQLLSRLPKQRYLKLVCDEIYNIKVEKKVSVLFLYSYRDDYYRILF
What is called IC50 is the concentration needed to halve the response being measured. Compound `Cc1[nH]ncc1C1N[C@H](C)CN(c2nccc(-c3cnc4ccc(C(F)(F)F)cn34)n2)[C@@H]1C` (stereo partly drawn) [I-173, 3-(2-((2R,5R)-2,5-dimethyl-3-(5-methyl-1H-pyrazol-4-yl)piperazin-1-yl)pyrimidin-4-yl)-6-(trifluoromethyl)imidazo[1,2-a]pyridine] displayed an IC50 of 100 to 1000 nM.

`C[C@@H]1C[C@@H](c2cn[nH]c2)CN(c2nccc(-c3cnc4ccc(Cl)cn34)n2)C1` (stereo in doubt) [I-195, 6-chloro-3-(2-((3R,5S)-3-methyl-5-(1H-pyrazol-4-yl)piperidin-1-yl)pyrimidin-4-yl)imidazo[1,2-a]pyridine]: the IC50 was in the range of 10 to 100 nM.

`CS(=O)(=O)NCC1NCCN(c2ccnc(-c3cnc4ccc(C(F)F)cn34)n2)C1C(F)(F)F` (stereo not shown) [I-496, N-((4-(2-(6-(difluoromethyl)imidazo[1,2-a]pyridin-3-yl)pyrimidin-4-yl)-3-(trifluoromethyl)piperazin-2-yl)methyl)methanesulfonamide] registered an IC50 of 100 to 1000 nM.

The compound `Cc1oncc1C(=O)N1CCN(c2ccnc(-c3cnc4ccc(C(F)(F)F)cn34)n2)C[C@H]1c1cn[nH]c1` [I-550, (R)-(2-(1H-pyrazol-4-yl)-4-(2-(6-(trifluoromethyl)imidazo[1,2-a]pyridin-3-yl)pyrimidin-4-yl)piperazin-1-yl)(5-methylisoxazol-4-yl)methanone] yielded an IC50 of 100 to 1000 nM.

In the case of `C[C@@H]1C[C@@H](N)CN(c2ccnc(-c3cnc4ccc(Cl)cn34)n2)C1` [I-256, (3R,5R)-1-(2-(6-chloroimidazo[1,2-a]pyridin-3-yl)pyrimidin-4-yl)-5-methylpiperidin-3-amine], the IC50 fell in the range of 100 to 1000 nM.

For the compound `Cc1noc([C@@H]2CN(c3ccnc(-c4cnc5ccc(C(F)F)cn45)n3)C[C@H](C)O2)n1` [I-498, (2S,6S)-4-(2-(6-(difluoromethyl)imidazo[1,2-a]pyridin-3-yl)pyrimidin-4-yl)-2-methyl-6-(3-methyl-1,2,4-oxadiazol-5-yl)morpholine], the IC50 was 10 to 100 nM.

`NC(=O)[C@H]1CN(c2ccnc(-c3cnc4ccc(C(F)(F)F)cn34)n2)CCO1` [I-151, (R)-4-(2-(6-(trifluoromethyl)imidazo[1,2-a]pyridin-3-yl)pyrimidin-4-yl)morpholine-2-carboxamide] yielded an IC50 of 100 to 1000 nM.

In the case of `CN(C)C(=O)COCC1CN(c2ccnc(-c3cnc4ccc(C(F)(F)F)cn34)n2)CC(C)(C)O1` (stereo not shown) [I-305, 2-((6,6-dimethyl-4-(2-(6-(trifluoromethyl)imidazo[1,2-a]pyridin-3-yl)pyrimidin-4-yl)morpholin-2-yl)methoxy)-N,N-dimethylacetamide], the IC50 lay within 100 to 1000 nM.

Take `O=C(O)CC1CCCN(c2ccnc(-c3cnc4ccc(C(F)(F)F)cn34)n2)C1` (stereo not shown) [I-165, 2-(1-(2-(6-(trifluoromethyl)imidazo[1,2-a]pyridin-3-yl)pyrimidin-4-yl)piperidin-3-yl)acetic acid]: the IC50 is 10 to 100 nM.

Turning to `NC(=O)[C@@H]1CCCN(c2nccc(-c3cnc4ccc(C(F)(F)F)cn34)n2)C1` [I-152, (R)-1-(4-(6-(trifluoromethyl)imidazo[1,2-a]pyridin-3-yl)pyrimidin-2-yl)piperidine-3-carboxamide], the IC50 lay within 10 to 100 nM.

In turn, `O=C(C1CCCN(c2ccnc(-c3cnc4ccc(C(F)(F)F)cn34)n2)C1)N1CCCC1` (stereo not shown) [I-131, pyrrolidin-1-yl(1-(2-(6-(trifluoromethyl)imidazo[1,2-a]pyridin-3-yl)pyrimidin-4-yl)piperidin-3-yl)methanone] registered an IC50 of 100 to 1000 nM.

`C[C@H]1C[C@@H](N=S(C)(C)=O)CN(c2ccnc(-c3cnc4ccc(S(C)(=O)=O)cn34)n2)C1` [I-312, dimethyl(((3R,5S)-5-methyl-1-(2-(6-(methylsulfonyl)imidazo[1,2-a]pyridin-3-yl)pyrimidin-4-yl)piperidin-3-yl)imino)-λ6-sulfanone] had an IC50 of 100 to 1000 nM.

As for `NC(=O)CC1CCCN(c2ccnc(-c3cnc4ccc(C(F)(F)F)cn34)n2)C1` (stereo not shown) [I-166, 2-(1-(2-(6-(trifluoromethyl)imidazo[1,2-a]pyridin-3-yl)pyrimidin-4-yl)piperidin-3-yl)acetamide], the half-maximal inhibitory concentration (IC50) was 10 to 100 nM.

`C[C@H]1C[C@@H](N=S(C)(C)=O)CN(c2ccnc(-c3cnc4ccc(S(=O)(=O)NC5CC5)cn34)n2)C1` [I-319, N-cyclopropyl-3-(4-((3R,5S)-3-((dimethyl(oxo)-λ6-sulfaneylidene)amino)-5-methylpiperidin-1-yl)pyrimidin-2-yl)imidazo[1,2-a]pyridine-6-sulfonamide] showed an IC50 of 100 to 1000 nM.

In the case of `O=C1CCC(C(=O)N2CCN(c3ccnc(-c4cnc5ccc(C(F)(F)F)cn45)n3)CC2c2cn[nH]c2)N1` (stereo not shown) [I-469, 5-(2-(1H-pyrazol-4-yl)-4-(2-(6-(trifluoromethyl)imidazo[1,2-a]pyridin-3-yl)pyrimidin-4-yl)piperazine-1-carbonyl)pyrrolidin-2-one], the IC50 is 10 to 100 nM.

As to `NC1CN(c2ccnc(-c3cnc4ccc(Cl)cn34)n2)CC[C@H]1O` (stereo in doubt) [I-255, (3R,4R)-3-amino-1-(2-(6-chloroimidazo[1,2-a]pyridin-3-yl)pyrimidin-4-yl)piperidin-4-ol], the IC50 lay within 100 to 1000 nM.

`Cc1nn(C)cc1[C@H]1C[C@H](C)CN(c2nccc(-c3cnc4ccc(C(F)(F)F)cn34)n2)C1` [I-139, 3-(2-((3R,5S)-3-(1,3-dimethyl-1H-pyrazol-4-yl)-5-methylpiperidin-1-yl)pyrimidin-4-yl)-6-(trifluoromethyl)imidazo[1,2-a]pyridine] displayed an IC50 of 100 to 1000 nM.

`CC1C(C(N)=O)NCCN1c1ccnc(-c2cnc3cc(F)c(C4CC4)cn23)n1` (stereo not shown) [I-455, 4-(2-(6-cyclopropyl-7-fluoroimidazo[1,2-a]pyridin-3-yl)pyrimidin-4-yl)-3-methylpiperazine-2-carboxamide] had an IC50 of 10 to 100 nM.

Turning to `NC(=O)[C@@H]1CN(c2ccnc(-c3cnc4ccc(Cl)cn34)n2)CCN1C1CC1` [I-350, (s)-4-(2-(6-chloroimidazo[1,2-a]pyridin-3-yl)pyrimidin-4-yl)-1-cyclopropylpiperazine-2-carboxamide], the IC50 lay in the range of 100 to 1000 nM.

`O=C([C@H]1C[C@H]1F)N1CCN(c2ccnc(-c3cnc4ccc(C(F)(F)F)cn34)n2)CC1c1cn[nH]c1` (stereo in doubt) [I-485, (2-(1H-pyrazol-4-yl)-4-(2-(6-(trifluoromethyl)imidazo[1,2-a]pyridin-3-yl)pyrimidin-4-yl)piperazin-1-yl)((1R,2R)-2-fluorocyclopropyl)methanone] yielded an IC50 of 10 to 100 nM.

With `Cc1nnc(C)n1[C@H]1C[C@H](C)CN(c2nccc(-c3cnc4ccc(C(F)(F)F)cn34)n2)C1` [I-465, 3-(2-((3S,5S)-3-(3,5-dimethyl-4H-1,2,4-triazol-4-yl)-5-methylpiperidin-1-yl)pyrimidin-4-yl)-6-(trifluoromethyl)imidazo[1,2-a]pyridine], the IC50 is 100 to 1000 nM.

`C[C@@H]1CN(c2nccc(-c3cnc4ccc(C(F)(F)F)cn34)n2)C[C@H](c2nn[nH]n2)O1` [I-190, (2R,6R)-2-methyl-6-(2H-tetrazol-5-yl)-4-(4-(6-(trifluoromethyl)imidazo[1,2-a]pyridin-3-yl)pyrimidin-2-yl)morpholine] had an IC50 of 100 to 1000 nM.

On to `NC(=O)CC1CN(c2ccnc(-c3cnc4ccc(C(F)(F)F)cn34)n2)C1` [I-230, 2-(1-(2-(6-(trifluoromethyl)imidazo[1,2-a]pyridin-3-yl)pyrimidin-4-yl)azetidin-3-yl)acetamide], for which the IC50 lay in the range of 10 to 100 nM.

`O=C(CO)N[C@H]1C[C@H](O)CN(c2ccnc(-c3cnc4ccc(C(F)(F)F)cn34)n2)C1` [I-253, 2-hydroxy-N-((3S,5S)-5-hydroxy-1-(2-(6-(trifluoromethyl)imidazo[1,2-a]pyridin-3-yl)pyrimidin-4-yl)piperidin-3-yl)acetamide] yielded an IC50 of 100 to 1000 nM.

For `C[C@@H]1CN(c2ccnc(-c3cnc4ccc(C(F)(F)F)cn34)n2)C[C@H](C)N1C(=O)C1(C)CC1` [I-486, (cis-2,6-dimethyl-4-(2-(6-(trifluoromethyl)imidazo[1,2-a]pyridin-3-yl)pyrimidin-4-yl)piperazin-1-yl)(1-methylcyclopropyl)methanone], the IC50 fell in the range of 100 to 1000 nM.

`FC(F)(F)c1ccc2ncc(-c3nccc(N4CCN(CC5COC5)C(c5cn[nH]c5)C4)n3)n2c1` (stereo not shown) [I-374, 3-(4-(4-(oxetan-3-ylmethyl)-3-(1H-pyrazol-4-yl)piperazin-1-yl)pyrimidin-2-yl)-6-(trifluoromethyl)imidazo[1,2-a]pyridine] gave an IC50 of less than 10 nM.

`FC(F)(F)c1ccc2ncc(-c3nccc(N4CCOC5(CNC5)C4)n3)n2c1` [I-412, 8-(2-(6-(trifluoromethyl)imidazo[1,2-a]pyridin-3-yl)pyrimidin-4-yl)-5-oxa-2,8-diazaspiro[3.5]nonane]: the IC50 was in the range of 100 to 1000 nM.

As for `C[C@@H]1[C@H](C(N)=O)NCCN1c1ccnc(-c2cnc3ccc(C(F)(F)F)cn23)n1` [I-434, (2R,3R)-3-methyl-4-(2-(6-(trifluoromethyl)imidazo[1,2-a]pyridin-3-yl)pyrimidin-4-yl)piperazine-2-carboxamide], the IC50 fell in the range of 100 to 1000 nM.

The compound `Cc1oncc1C(=O)N1CCN(c2ccnc(-c3cnc4ccc(C(F)(F)F)cn34)n2)CC1c1cn[nH]c1` (stereo not shown) [I-515, (2-(1H-pyrazol-4-yl)-4-(2-(6-(trifluoromethyl)imidazo[1,2-a]pyridin-3-yl)pyrimidin-4-yl)piperazin-1-yl)(5-methylisoxazol-4-yl)methanone] gave an IC50 of 100 to 1000 nM.

Staying with this assay, now noted: Ki(app); 280 μM ATP, 200 μM (RS)7 peptide, 4 nM GCN2, 25° C.
The compound `Clc1ccc2ncc(-c3nccc(N4CCCC(c5cn[nH]c5)C4)n3)n2c1` (stereo not shown) [I-100, 2-{6-chloroimidazo[1,2-a]pyridin-3-yl}-4-[3-(1H-pyrazol-4-yl)piperidin-1-yl]pyrimidine] came in with a Ki of less than 10 nM.

Compound `Cc1nnc([C@@H]2CN(c3ccnc(-c4cnc5ccc(C(F)(F)F)cn45)n3)C[C@H](C)O2)o1` (relative stereo) [I-93, cis-2-methyl-6-(5-methyl-1,3,4-oxadiazol-2-yl)-4-{2-[6-(trifluoromethyl)imidazo[1,2-a]pyridin-3-yl]pyrimidin-4-yl}morpholine] showed a Ki of 10 to 100 nM.

The values are drawn from patent US10793563B2, “GCN2 inhibitors and uses thereof” (Merck Patent GmbH, priority 2018, dated 2020).
